Source: PubChem BioAssay (NCI)
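Values below derive from 48-hour exposures of cells grown in 96-well plates, with endpoints linearly interpolated between the two concentrations bracketing the appropriate inhibition level. At the GI50, growth is halved. Definition used: TGI = concentration required for complete inhibition of growth.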

Columns and labels:
Test in all cases: NCI-60 cell line screen, 48 h
[1] = tested on: 786-0 renal
[2] = tested on: A498 renal
[3] = tested on: A549 NSCLC
[4] = tested on: ACHN renal
[5] = tested on: BT-549 breast
[6] = tested on: CAKI-1 renal
[7] = tested on: CCRF-CEM leukemia
[8] = tested on: COLO 205 colon
[9] = tested on: DU-145 prostate
[10] = tested on: EKVX NSCLC
[11] = tested on: HCC-2998 colon
[12] = tested on: HCT-116 colon
[13] = tested on: HCT-15 colon
[14] = tested on: HL-60(TB) leukemia
[15] = tested on: HOP-62 NSCLC
[16] = tested on: HOP-92 NSCLC
[17] = tested on: HS 578T breast
[18] = tested on: HT29 colon
[19] = tested on: IGROV1 ovarian
[20] = tested on: K-562 leukemia
[21] = tested on: KM12 colon
[22] = tested on: LOX IMVI melanoma
[23] = tested on: M14 melanoma
[24] = tested on: MALME-3M melanoma
[25] = tested on: MCF7 breast
[26] = tested on: MDA-MB-231 breast
[27] = tested on: MDA-MB-435
[28] = tested on: MOLT-4 leukemia

Q: Which GI50 [1] does the source give for `N#C/C=C(\c1ccc([N+](=O)[O-])cc1)n1nnc2cc(Cl)c(Cl)cc21` here?
A: 2.09 µM

Q: What about the TGI [1] of the same molecule?
A: 3.58 µM

Q: And the GI50 [2]?
A: 1.74 µM

Q: What about the TGI [2] of the same molecule?
A: 3.43 µM

Q: What about the GI50 [3] of the same molecule?
A: 3.45 µM

Q: And the TGI [3]?
A: 13.6 µM

Q: What about the GI50 [4] of the same molecule?
A: 1.63 µM

Q: And the TGI [4]?
A: 3.16 µM

Q: What about the GI50 [5] of the same molecule?
A: 1.77 µM

Q: And the TGI [5]?
A: 3.77 µM

Q: What about the GI50 [6] of the same molecule?
A: 1.37 µM

Q: What about the TGI [6] of the same molecule?
A: 2.91 µM

Q: And the GI50 [7]?
A: 2.31 µM

Q: What about the TGI [7] of the same molecule?
A: 29.4 µM

Q: And the GI50 [8]?
A: 1.91 µM

Q: What about the TGI [8] of the same molecule?
A: 3.91 µM

Q: And the GI50 [9]?
A: 1.65 µM

Q: And the TGI [9]?
A: 3.3 µM

Q: And the GI50 [10]?
A: 1.91 µM

Q: And the TGI [10]?
A: 4.67 µM

Q: What about the GI50 [11] of the same molecule?
A: 1.77 µM

Q: And the TGI [11]?
A: 3.33 µM

Q: What about the GI50 [12] of the same molecule?
A: 1.34 µM

Q: And the TGI [12]?
A: 2.7 µM

Q: What about the GI50 [13] of the same molecule?
A: 1.85 µM

Q: What about the TGI [13] of the same molecule?
A: 5.36 µM

Q: What about the GI50 [14] of the same molecule?
A: 2.71 µM

Q: And the TGI [14]?
A: 41.1 µM

Q: What about the GI50 [15] of the same molecule?
A: 1.99 µM

Q: What about the TGI [15] of the same molecule?
A: 5.04 µM

Q: What about the GI50 [16] of the same molecule?
A: 1.78 µM

Q: What about the TGI [16] of the same molecule?
A: 4.28 µM

Q: And the GI50 [17]?
A: 2.39 µM

Q: What about the TGI [17] of the same molecule?
A: 8.94 µM

Q: What about the GI50 [18] of the same molecule?
A: 2.05 µM

Q: And the TGI [18]?
A: 4.23 µM

Q: What about the GI50 [19] of the same molecule?
A: 1.82 µM

Q: And the TGI [19]?
A: 4.08 µM

Q: What about the GI50 [20] of the same molecule?
A: 2.39 µM

Q: What about the TGI [20] of the same molecule?
A: > 100 µM

Q: What about the GI50 [21] of the same molecule?
A: 2.62 µM

Q: What about the TGI [21] of the same molecule?
A: 11.3 µM

Q: What about the GI50 [22] of the same molecule?
A: 1.67 µM

Q: And the TGI [22]?
A: 3.19 µM

Q: What about the GI50 [23] of the same molecule?
A: 1.86 µM

Q: And the TGI [23]?
A: 4.5 µM

Q: And the GI50 [24]?
A: 1.7 µM

Q: And the TGI [24]?
A: 4.18 µM

Q: What about the GI50 [25] of the same molecule?
A: 0.738 µM

Q: And the TGI [25]?
A: 3.32 µM

Q: What about the GI50 [26] of the same molecule?
A: 2.34 µM

Q: And the TGI [26]?
A: 8.66 µM

Q: What about the GI50 [27] of the same molecule?
A: 1.75 µM

Q: And the TGI [27]?
A: 3.7 µM

Q: And the GI50 [28]?
A: 2.71 µM

Q: What about the TGI [28] of the same molecule?
A: > 100 µM
